In ChEMBL document CHEMBL1201862, “PubChem BioAssay data set” (2004):
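Assay format: 96-well plates, 48-hour exposure. GI50: concentration for 50% inhibition of growth.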 Active and inactive are the calls of the source. Rule as the data show it: active = GI50 up to about 1.1 µM and inactive = higher.

Assays:
Assay in all cases: growth of human tumour cells (NCI), 48 h
[1] = tested on: A549
[2] = tested on: 786-0
[3] = tested on: CCRF-CEM
[4] = tested on: LOX IMVI
[5] = tested on: HOP-62
[6] = tested on: TK-10
[7] = tested on: SK-MEL-28
[8] = tested on: SF-268
[9] = tested on: SW-620
[10] = tested on: SN12C
[11] = tested on: MOLT-4
[12] = tested on: SK-OV-3
[13] = tested on: EKVX
[14] = tested on: SF-295
[15] = tested on: SR

Measured: GI50

O=C1NC(=O)C(=Cc2c3ccccc3cc3ccccc23)C(=O)N1
inactive: [1] > 100 µM | [2] > 100 µM | [3] 59.3 µM | [4] > 100 µM | [5] > 100 µM | [6] > 100 µM | [7] > 100 µM | [8] > 100 µM | [9] > 100 µM | [10] > 100 µM | [11] 55.5 µM | [12] > 100 µM

O=C1CC2CCN(C(=O)c3ccccc3)CC2CCN1.O=C1CCC2CC(C(=O)c3ccccc3)CCC2CN1 (configuration not stated)
inactive: [1] > 100 µM | [13] > 100 µM | [2] > 100 µM | [3] > 100 µM | [14] > 100 µM | [5] > 100 µM | [7] > 100 µM | [8] > 100 µM | [9] > 100 µM | [10] > 100 µM | [11] > 100 µM | [15] > 100 µM | [12] > 100 µM

CCCCCNC(=O)C1C(=O)N(CCCCC)C(=O)/C1=N\N (configuration not stated)
inactive: [1] 77.6 µM | [13] 86.7 µM | [2] > 100 µM | [3] 49.2 µM | [14] 30.5 µM | [5] 35.5 µM | [6] > 100 µM | [7] 62.8 µM | [8] 63.8 µM | [9] 79.3 µM | [10] 54.2 µM | [11] 40.8 µM

NCCCNCCCCN(CCCN)/[N+]([O-])=N\O
inactive: [1] > 100 µM | [13] > 100 µM | [2] > 100 µM | [3] > 100 µM | [14] > 100 µM | [5] > 100 µM | [7] > 100 µM | [8] > 100 µM | [9] > 100 µM | [10] > 100 µM | [11] > 100 µM | [15] 28.6 µM

O=C1NC(=O)C(C(=O)C(=O)Nc2cccc(C(F)(F)F)c2)C(=O)N1
inactive: [1] > 100 µM | [13] > 100 µM | [2] > 100 µM | [3] > 100 µM | [4] > 100 µM | [5] > 100 µM | [6] > 100 µM | [7] > 100 µM | [8] > 100 µM | [9] > 100 µM | [11] > 100 µM | [12] > 100 µM

Cc1nn(-c2ccccc2)c2nc(N3CCOCC3)nnc12
inactive: [1] 94.4 µM | [13] > 100 µM | [2] > 100 µM | [3] > 100 µM | [4] > 100 µM | [14] > 100 µM | [5] > 100 µM | [6] > 100 µM | [7] > 100 µM | [8] > 100 µM | [9] > 100 µM | [10] > 100 µM | [11] 40.6 µM | [12] > 100 µM

O=c1[nH]cc(COCC(O)CO)c(=O)[nH]1 (configuration not stated)
inactive: [1] > 100 µM | [13] > 100 µM | [2] > 100 µM | [3] > 100 µM | [4] > 100 µM | [14] > 100 µM | [5] > 100 µM | [6] > 100 µM | [7] > 100 µM | [8] > 100 µM | [9] > 100 µM | [10] > 100 µM | [11] > 100 µM | [12] > 100 µM

CCOC(=O)/C=C(/CN1C(=O)c2ccccc2C1=O)c1ccccc1
inactive: [1] > 100 µM | [13] > 100 µM | [2] > 100 µM | [3] > 100 µM | [4] > 100 µM | [14] > 100 µM | [5] > 100 µM | [6] > 100 µM | [7] > 100 µM | [8] > 100 µM | [9] > 100 µM | [10] > 100 µM | [11] > 100 µM | [12] > 100 µM

CC(C)N(C(=O)C12C3C4C1(I)C1C2C3(I)C41C(=O)N(C(C)C)C(C)C)C(C)C (configuration not stated)
inactive: [1] > 100 µM | [13] > 100 µM | [2] > 45.7 µM | [3] > 41.8 µM | [4] > 43.5 µM | [14] > 100 µM | [5] > 100 µM | [6] > 100 µM | [7] > 100 µM | [8] > 100 µM | [9] > 39.2 µM | [10] > 100 µM | [11] > 100 µM | [12] > 100 µM

CCCNC(=O)C(C)(Cl)C(=O)c1ccccc1O (configuration not stated)
inactive: [1] > 100 µM | [2] > 100 µM | [3] > 100 µM | [5] > 100 µM | [6] > 100 µM | [7] > 100 µM | [8] > 100 µM | [9] > 100 µM | [10] > 100 µM | [11] > 100 µM | [15] > 100 µM | [12] > 100 µM

C=CCc1cc(OC)c(O)c(C(=O)/C=C/c2ccc(OC)c(OC)c2)c1
inactive: [1] 28.9 µM | [13] 20.2 µM | [2] 18.2 µM | [3] 9.98 µM | [4] 16.3 µM | [14] 16.1 µM | [5] > 10 µM | [6] 25.1 µM | [7] 16.9 µM | [8] 24.4 µM | [9] 24.4 µM | [11] 1.2 µM | [12] 28.5 µM
